Assay results: patent US7915405B2, “2,4-disubstituted-5-aminocarbonyl-1,3-thiazole derivatives for therapeutic agent of antiinflammatory disease, method thereof for preparation, therapeutic agent for antiinflammatory disease induced by SPC activity containing the same” (Korea Research Institute of Chemical Technology, priority 2008, dated 2011)
Where two headings read alike, the source gives them in different places.

What was measured:
[1] = tested on: TPA-induced inflammation model; test: Control of inflammatory reaction in mouse TPA-induced inflammation model (ear weight and MPO activity); format: in vivo; settings: ICR mice; for Inhibition (%) of inflammatory reaction (ear edema, ear weight) / Inhibition (%) (MPO inhibition): 0.3% in acetone, 20 μl on the ear at 1 hour and 6 hours after TPA; for Inhibition (%) of inflammatory reaction (ear edema, ear weight): measured at 24 hours; for inhibition of TPA-induced inflammatory reactions, ear edema and MPO activity (in words): 0.3% topical, compared with hydrocortisone; for Inhibition (%) (MPO inhibition): value in brackets, MPO activity of ear at 24 hours
Experimental: In order to examine an inhibitory effect on inflammatory reactions, the following test was carried out using tetradecanoyl phorbol acetate (hereinafter referred to as “TPA”)-induced inflammation model.
The TPA-induced inflammation model was a test method which has been widely used to test inflammatory reaction mechanisms and the effect of inhibitory substances [De Young L M et al., Agents and Actions, 1989, 26, 335-341]. When TPA which is a substance causing an inflammatory reaction is applied to the ear of a test subject, erythema and edema occur. Such inflammatory reactions are measurable through the increase in the activity of myeloperoxidase (MPO) which is essential for bacterial invasion into white blood cells.
Forty 6-week-old ICR mice were prepared, and 20 μl of a TPA solution (Sigma Aldrich Korea) obtained by dissolving TPA in acetone at a concentration of 125 μg/ml was applied to the left ear of each animal. At 1 hour after the application of TPA, 20 μl of each of acetone, the compounds of Examples dissolved in acetone at a concentration of 0.3%, and hydrocortisone (Sigma Aldrich Korea) dissolved in acetone at a concentration of 0.3% was applied to the TPA-applied site, and at 6 hours after the application of TPA, it was applied again to the same site in the same amount (20 μl). At 24 hours after the application of TPA, the mice were sacrificed by cervical dislocation, and the left ear was collected in a given width and measured for weight and MPO activity. Inhibition % of inflammatory reactions was calculated according to the following equation 3, and the results are shown in Table 4 below. Inhibition %=(group treated with TPA alone−group treated with test drug)/(group treated with TPA alone−group not treated with TPA)×100 [Equation 3]

[2] = tested on: NIH 3T3 cells; test: Control of cellular division and proliferation induced by SPC ([3H]-thimidine incorporation); format: cell-based; settings: for IC50: compound 0.001-1 μM 30 minutes, then SPC 7 μM, 24 hours, read-out: antagonistic effect on SPC IC50; for inhibition of cellular division and proliferation induced by SPC (in words): SPC 7 μM
Experimental: Treatment of cells with sphingosylphosphorylcholine (SPC) can induce excessive cellular division and proliferation, thus causing pathological skin conditions [Desai, Biochem. Biophys. […] Accordingly, the compounds prepared in the above Examples were tested for an effect on cellular division and proliferation induced by SPC.
First, 1×10^5 (usually 1×10^4˜10^5) NIH 3T3 cells (American Type Culture Collection, Manassas, Va., USA) were dispensed and cultured on a culture plate, and then cultured in RPMI medium containing no fetal bovine serum for 24 hours to achieve serum starvation. The cells were treated with the compounds prepared in the above Examples, and FTY720, a sphingosine-1-phosphate (S1P) agonist, at concentrations of 0.001 μM, 0.01 μM, 0.1 μM and 1 μM, and were incubated for 30 minutes. Then, SPC (Biomol, Plymouth Meeting, Pa., USA) was added thereto at a concentration of 7 μM, and the cells were incubated at 37° C. for 24 hours. […] Proliferation %=(group treated with test drug−group not treated with SPC)/(group treated with SPC alone−group not treated with SPC)×100 [Equation 1]

[3] = Mus musculus, NIH3T3, serum starved

CC(C)(C)C(=O)Nc1nc(N2CCCCC2)sc1C(=O)N1CCOCC1 [Example 1-1]
Inhibition (%) of inflammatory reaction (ear edema, ear weight) [1]: 21% | IC50 [2, 3]: 0.932 µM

CC(C)(C)C(=O)Nc1nc(N2CCN(c3ccccc3)CC2)sc1C(=O)N1CCOCC1 [Example 1-5]
Inhibition (%) of inflammatory reaction (ear edema, ear weight) [1]: 30% | IC50 ([2]; serum starved): 0.189 µM

COc1ccccc1N1CCN(c2nc(NC(=O)C(C)(C)C)c(C(=O)N3CCOCC3)s2)CC1 [Example 1-7]
IC50 ([2]; serum starved): 0.271 µM

CC(C)(C)C(=O)Nc1nc(N2CCN(c3ccc(Cl)cc3)CC2)sc1C(=O)N1CCOCC1 [Example 1-8]
IC50 ([2]; serum starved): 0.73 µM

CC(C)(C)C(=O)Nc1nc(NCc2ccccc2)sc1C(=O)N1CCOCC1 [Example 1-10]
Inhibition (%) of inflammatory reaction (ear edema, ear weight) [1]: 68% | IC50 ([2]; serum starved): 0.068 µM

COc1ccc(CNc2nc(NC(=O)C(C)(C)C)c(C(=O)N3CCOCC3)s2)cc1 [Example 1-11]
Inhibition (%) of inflammatory reaction (ear edema, ear weight) [1]: 49% | IC50 ([2]; serum starved): 0.0937 µM

CC(C)(C)C(=O)Nc1nc(NCCN2CCCCC2)sc1C(=O)N1CCOCC1 [Example 1-12, N-{5-(morpholine-4-carbonyl)-2-[2-(piperidin-1-yl)ethylamino]thiazol-4-yl}pivalamide]
Inhibition (%) of inflammatory reaction (ear edema, ear weight) [1]: 86% | inhibition of TPA-induced inflammatory reactions, ear edema and MPO activity (in words) [1]: significantly inhibited | Inhibition (%) (MPO inhibition) [1]: 80% | IC50 [2, 3]: 0.00581 µM | inhibition of cellular division and proliferation induced by SPC (in words) [2]: dose-dependently inhibited

CC(C)(C)C(=O)Nc1nc(NCCN2CCCC2)sc1C(=O)N1CCOCC1 [Example 1-13]
IC50 ([2]; serum starved): 0.0127 µM

CC(C)(C)C(=O)Nc1nc(N2CCC(N3CCOCC3)CC2)sc1C(=O)N1CCOCC1 [Example 1-14]
Inhibition (%) of inflammatory reaction (ear edema, ear weight) [1]: 71% | IC50 ([2]; serum starved): 0.0093 µM

CC(C)(C)C(=O)Nc1nc(N2CCC(N3CCCC3)CC2)sc1C(=O)N1CCOCC1 [Example 1-15]
IC50 ([2]; serum starved): 0.0207 µM

CC(C)(C)C(=O)Nc1nc(N2CCC(N3CCCCC3)CC2)sc1C(=O)N1CCOCC1 [Example 1-16]
IC50 ([2]; serum starved): 0.103 µM

CCCCC(=O)Nc1nc(NCc2ccccc2)sc1C(=O)N1CCOCC1 [Example 1-19]
IC50 ([2]; serum starved): 0.079 µM

CCCCC(=O)Nc1nc(NCCN2CCCCC2)sc1C(=O)N1CCOCC1 [Example 1-20]
Inhibition (%) of inflammatory reaction (ear edema, ear weight) [1]: 62% | IC50 ([2]; serum starved): 0.0075 µM

CCCCC(=O)Nc1nc(N2CCC(N3CCOCC3)CC2)sc1C(=O)N1CCOCC1 [Example 1-21]
Inhibition (%) of inflammatory reaction (ear edema, ear weight) [1]: 52% | IC50 ([2]; serum starved): 0.057 µM

CCCCC(=O)Nc1nc(N2CCC(N3CCCC3)CC2)sc1C(=O)N1CCOCC1 [Example 1-22]
Inhibition (%) of inflammatory reaction (ear edema, ear weight) [1]: 53% | Inhibition (%) (MPO inhibition) [1]: 48% | IC50 ([2]; serum starved): 0.096 µM

COc1ccccc1N1CCN(c2nc(NC(C)=O)c(C(=O)N3CCOCC3)s2)CC1 [Example 1-23]
IC50 ([2]; serum starved): 0.85 µM

COc1ccccc1N1CCN(c2nc(NC(=O)C3CCCCC3)c(C(=O)N3CCOCC3)s2)CC1 [Example 1-24]
IC50 ([2]; serum starved): 0.91 µM

COc1ccccc1N1CCN(c2nc(NC(=O)C3CC3)c(C(=O)N3CCOCC3)s2)CC1 [Example 1-25]
IC50 ([2]; serum starved): 0.067 µM

CC(C)(C)C(=O)Nc1nc(NCC2CC2)sc1C(=O)N1CCCCC1 [Example 1-27]
IC50 ([2]; serum starved): 0.308 µM

CC(C)(C)C(=O)Nc1nc(NCC2CCCCC2)sc1C(=O)N1CCCCC1 [Example 1-28]
Inhibition (%) of inflammatory reaction (ear edema, ear weight) [1]: 43% | IC50 ([2]; serum starved): 0.716 µM

CC(C)(C)C(=O)Nc1nc(NCc2ccccc2)sc1C(=O)N1CCCCC1 [Example 1-29, N-[2-(benzylamino)-5-(piperidine-1-carbonyl)thiazol-4-yl]pivalamide]
Inhibition (%) of inflammatory reaction (ear edema, ear weight) [1]: 87% | inhibition of TPA-induced inflammatory reactions, ear edema and MPO activity (in words) [1]: significantly inhibited | Inhibition (%) (MPO inhibition) [1]: 83% | IC50 [2, 3]: 0.00612 µM | inhibition of cellular division and proliferation induced by SPC (in words) [2]: dose-dependently inhibited

CC(C)(C)C(=O)Nc1nc(NCCN2CCCCC2)sc1C(=O)N1CCCCC1 [Example 1-30]
Inhibition (%) of inflammatory reaction (ear edema, ear weight) [1]: 59% | IC50 ([2]; serum starved): 0.878 µM

Cc1ccccc1N1CCN(c2nc(NC(=O)C(C)(C)C)c(C(=O)N3CCCCC3)s2)CC1 [Example 1-32]
Inhibition (%) of inflammatory reaction (ear edema, ear weight) [1]: 43% | IC50 ([2]; serum starved): 0.045 µM

CC(C)(C)C(=O)Nc1nc(N2CCN(c3ccccc3F)CC2)sc1C(=O)N1CCCCC1 [Example 1-33]
Inhibition (%) of inflammatory reaction (ear edema, ear weight) [1]: 47% | IC50 ([2]; serum starved): 0.0109 µM

CC(C)(C)C(=O)Nc1nc(N2CCN(c3ccc(F)cc3)CC2)sc1C(=O)N1CCCCC1 [Example 1-34]
IC50 ([2]; serum starved): 0.057 µM

CC(C)(C)C(=O)Nc1nc(N2CCN(c3ccccc3C#N)CC2)sc1C(=O)N1CCCCC1 [Example 1-35]
IC50 ([2]; serum starved): 0.094 µM

CC(C)(C)C(=O)Nc1nc(N2CCN(c3ccccn3)CC2)sc1C(=O)N1CCCCC1 [Example 1-36]
IC50 ([2]; serum starved): 0.54 µM

CC(C)(C)C(=O)Nc1nc(N2CCC(N3CCOCC3)CC2)sc1C(=O)N1CCCCC1 [Example 1-37]
Inhibition (%) of inflammatory reaction (ear edema, ear weight) [1]: 44% | Inhibition (%) (MPO inhibition) [1]: 47% | IC50 ([2]; serum starved): 0.089 µM

CC(C)(C)C(=O)Nc1nc(N2CCC(N3CCCCC3)CC2)sc1C(=O)N1CCCCC1 [Example 1-38]
IC50 ([2]; serum starved): 0.176 µM

CCCCC(=O)Nc1nc(NCc2ccccc2)sc1C(=O)N1CCCCC1 [Example 1-41]
Inhibition (%) of inflammatory reaction (ear edema, ear weight) [1]: 51% | IC50 ([2]; serum starved): 0.0098 µM

CCCCC(=O)Nc1nc(NCCN2CCCCC2)sc1C(=O)N1CCCCC1 [Example 1-42]
IC50 ([2]; serum starved): 0.102 µM

CCCCC(=O)Nc1nc(N2CCC(N3CCCC3)CC2)sc1C(=O)N1CCCCC1 [Example 1-44]
Inhibition (%) of inflammatory reaction (ear edema, ear weight) [1]: 57% | IC50 ([2]; serum starved): 0.0883 µM

CC(C)(C)C(=O)Nc1nc(NCc2ccccc2)sc1C(=O)N1CCCC1 [Example 1-45]
IC50 ([2]; serum starved): 0.97 µM

COc1ccccc1N1CCN(c2nc(NC(=O)C(C)(C)C)c(C(=O)N3CCCC3)s2)CC1 [Example 1-49]
Inhibition (%) of inflammatory reaction (ear edema, ear weight) [1]: 38% | IC50 ([2]; serum starved): 0.178 µM

CCCCCCCCc1ccc(CCC(N)(CO)CO)cc1 [FTY720, reference compound]
inhibition of cellular division and proliferation induced by SPC (in words) [2]: did not inhibit

C[C@]12CCC(=O)C=C1CC[C@@H]1[C@@H]2[C@@H](O)C[C@@]2(C)[C@H]1CC[C@]2(O)C(=O)CO [Hydrocortisone, hydrocortisone, reference compound]
Inhibition (%) of inflammatory reaction (ear edema, ear weight) [1]: 85%
